Assay: Tasting of high-purity Pinoquercetin + potassium chloride (KCl)
Assay type: in vivo
Conditions: for bitterness of KCl is reduced by the product, share of responses: 14 responses
Method: The sensory evaluation of the samples was performed twice by a team of seven experienced assessors.

[1] = 10 μM (3.2 ppm) with 1.5% potassium chloride in spring water
[2] = 25 μM (8 ppm) with 1.5% potassium chloride in spring water
[3] = 50 μM (16 ppm) with 1.5% potassium chloride in spring water

**Q.** With `Cc1c(O)cc2oc(-c3ccc(O)c(O)c3)c(O)c(=O)c2c1O` [Pinoquercetin] as the compound, how does the “bitterness of KCl is reduced by the product, share of responses” value (“bitterness of KCl is reduced” below) (1 μM (0.3 ppm) with 1.5% potassium chloride in spring water) read?
**A.** The value was “product in 64% of responses average”.

**Q.** What about the dominant flavour [1] of the same compound?
**A.** Its dominant flavour is “sure dominant flavour: saltiness”.

**Q.** What about the “bitterness of KCl is reduced” value [1] of the same compound?
**A.** The value was “product in 64% of responses average”.

**Q.** What about the dominant flavour [2] of the same compound?
**A.** The dominant flavour was “flavour: saltiness”.

**Q.** And the “bitterness of KCl is reduced” value [2]?
**A.** The value was “product in 64% of responses average”.

**Q.** What about the dominant flavour [3] of the same compound?
**A.** The dominant flavour was “flavour: saltiness”.

**Q.** What about the “bitterness of KCl is reduced” value [3] of the same compound?
**A.** The value was “product in 71% of responses average”.
